# The OligoGym collection
# HELM strings list units from the 5' end as sugar, base in round brackets, then linkage (d deoxyribose, r ribose, m 2'-O-methyl, p phosphodiester). Strings are as the collection lists them; they lack the last nucleoside at the 3' end of the tested compound. [moe] = 2'-O-(2-methoxyethyl) (MOE); [sp] = phosphorothioate linkage; [m5C] = 5-methylcytosine
# Target: SOD1
# Assay: mouse, dose not given
# Details: ASO
row,Substance,3 h FOB score [score 0-7]
1,RNA1{[moe]([m5C])[sp].[moe](A)p.[moe](G)[sp].[moe](G)p.[moe](A)[sp].d(T)[sp].d(A)[sp].d([m5C])[sp].d(A)[sp].d(T)[sp].d(T)[sp].d(T)[sp].d([m5C])[sp].d(T)[sp].d(A)[sp].[moe]([m5C])p.[moe](A)[sp].[moe](G)p.[moe]([m5C])}$$$$ (last 3' nucleoside missing),1.25
2,RNA1{[moe]([m5C])[sp].[moe]([m5C])[sp].[moe](G)[sp].[moe](T)[sp].[moe]([m5C])[sp].d(G)[sp].d([m5C])[sp].d([m5C])[sp].d([m5C])[sp].d(T)[sp].d(T)[sp].d([m5C])[sp].d(A)[sp].d(G)[sp].d([m5C])[sp].[moe](A)[sp].[moe]([m5C])[sp].[moe](G)[sp].[moe]([m5C])}$$$$ (last 3' nucleoside missing),6.5
